# Test results taken from patent US10722442B2, “Skin brightening composition comprising novel ginsenoside” (AMOREPACIFIC CORPORATION, priority 2018, dated 2020).
# Columns and labels:
# [1] = molecular target: Mushroom-derived tyrosinase; test: Inhibitory effect of tyrosinase activity; type: biochemical; conditions: L-tyrosine substrate, 20 minutes at 37° C., absorbance at 490 nm
# Experimental: In order to compare the skin brightening effects of ginsenosides isolated from the ginseng seed extract, the inhibitory effect of the tyrosinase activity was evaluated as follows. Mushroom-derived tyrosinase and tyrosine were obtained from Sigma Chemical. […] Tyrosinase activity was assessed by measuring the absorbance at 490 nm using a microplate reader (Bio-Rad 3550, Richmond, Calif., U.S.A.) after an enzyme reaction for 20 minutes at 37° C.
# Mel-Ab cell line = test: Melanin production inhibition (Dooley's method); type: cell-based, C57BL/6; conditions: Mel-Ab cells, after 5 days, absorbance at 400 nm
SMILES,"IC50 (ppm), inhibitory effect of tyrosinase activity [1] [ppm]","IC50 (ppm), concentration required to reduce melanin production in melanocytes by half (Mel-Ab cell line) [ppm]"
"OC[C@H]1O[C@@H](Oc2ccc(O)cc2)[C@H](O)[C@@H](O)[C@@H]1O [Arbutin, arbutin]",149,
"CC(C)=CCC[C@](C)(O[C@@H]1O[C@H](CO)[C@@H](O)[C@H](O)[C@H]1O)[C@H]1CC[C@]2(C)[C@@H]1[C@H](O)C[C@@H]1[C@@]3(C)CC[C@H](O)C(C)(C)[C@@H]3[C@@H](O[C@@H]3O[C@H](CO)[C@@H](O)[C@H](O)[C@H]3O)C[C@]12C [GS#01, ginsenoside Rg1]",23,37
"CC(C)=CCC[C@](C)(O)[C@H]1CC[C@]2(C)[C@@H]1[C@H](O)C[C@@H]1[C@@]3(C)CC[C@H](O)C(C)(C)[C@@H]3[C@@H](O[C@@H]3O[C@H](CO)[C@@H](O)[C@H](O)[C@H]3O[C@@H]3O[C@@H](C)[C@H](O)[C@@H](O)[C@H]3O)C[C@]12C [GS#02, ginsenoside Rg2]",30,35
"CC(C)=CCC[C@](C)(O[C@@H]1O[C@H](CO)[C@@H](O)[C@H](O)[C@H]1O)[C@H]1CC[C@]2(C)[C@@H]1[C@H](O)C[C@@H]1[C@@]3(C)CC[C@H](O)C(C)(C)[C@@H]3[C@@H](O[C@@H]3O[C@H](CO)[C@@H](O)[C@H](O)[C@H]3O[C@@H]3O[C@@H](C)[C@H](O)[C@@H](O)[C@H]3O)C[C@]12C [GS#03, ginsenoside Re]",27,39
"CC(C)=CCC[C@](C)(O[C@@H]1O[C@H](CO)[C@@H](O)[C@H](O)[C@H]1O)[C@H]1CC[C@]2(C)[C@@H]1[C@H](O)C[C@@H]1[C@@]3(C)CC[C@H](O[C@@H]4O[C@H](CO)[C@@H](O)[C@H](O)[C@H]4O[C@@H]4O[C@H](CO)[C@@H](O)[C@H](O)[C@H]4O)C(C)(C)[C@@H]3CC[C@]12C [GS#04, ginsenoside Rd]",31,38
"CC(C)=CCC[C@](C)(O[C@@H]1O[C@H](CO[C@@H]2O[C@H](CO)[C@@H](O)[C@H](O)[C@H]2O)[C@@H](O)[C@H](O)[C@H]1O)[C@H]1CC[C@]2(C)[C@@H]1[C@H](O)C[C@@H]1[C@@]3(C)CC[C@H](O[C@@H]4O[C@H](CO)[C@@H](O)[C@H](O)[C@H]4O[C@@H]4O[C@H](CO)[C@@H](O)[C@H](O)[C@H]4O)C(C)(C)[C@@H]3CC[C@]12C [GS#05, ginsenoside Rb1]",47,57
"CC(C)=CCC[C@](C)(O[C@@H]1O[C@H](CO[C@@H]2OC[C@H](O)[C@H](O)[C@H]2O)[C@@H](O)[C@H](O)[C@H]1O)[C@H]1CC[C@]2(C)[C@@H]1[C@H](O)C[C@@H]1[C@@]3(C)CC[C@H](O[C@@H]4O[C@H](CO)[C@@H](O)[C@H](O)[C@H]4O[C@@H]4O[C@H](CO)[C@@H](O)[C@H](O)[C@H]4O)C(C)(C)[C@@H]3CC[C@]12C [GS#06, ginsenoside Rb2]",53,54
"O=c1cc(CO)occ1O [Kojic acid, kojic acid]",,39
